Data set [1] in a line: In vitro peptide stability in 10% rodent brain homogenate. It counts as in vitro ADME, rat. The protocol:
For the peptide stability assay in vitro, both 15merTNP and peptide analogue MP2 were incubated separately with fresh 10% rodent brain homogenate to model degradation in tissues. In order to create a physiological dose of peptide in the in vitro assay, both radioactive (^3H-labelled; hot) and non-radioactive (cold) peptides were combined in a set ratio. Cold peptide was added at a dose of […] per ml of 10% brain homogenate. Hot peptide was added at a dose of 250 μCi per ml 10% brain homogenate. Following the addition of hot and cold peptide; the homogenate was vortexed and incubated for different time points. The reaction was stopped by adding complete protease inhibitor cocktail and the samples analysed.
The biological stability of the peptides was evaluated by incubating them (90 nmol) in fresh 10% rodent brain homogenate for different times at 37° C. The amount of intact peptide was estimated by running the supernatant of the homogenate on a 16% Tricine gel to separate peptide that had not had its amino acid sequence degraded. FIG. 3 illustrates the relative stability of 15merTNP and peptide analogue MP2 over two hours run on a 16% Tricine gel from time 0-120 min with samples run in duplicate. The values correspond to the in vitro half-life, which is defined as the time needed for 50% degradation of the peptide.

The next data set deals with human Aβ1-42 (Homo sapiens, UniProt P05067). Kind of data set: DCF fluorescence assay of H2O2 production (SOD-like activity) by human Aβ1-42. It counts as biochemical. The conditions noted are these: P<0.001. The protocol:
The three candidate peptides (15merTNP, 6merPLP and 6merMTM) were examined to determine whether they could attenuate Aβ's SOD-like activity in vitro. A DCF fluorescence assay was used to assess the efficacy of these peptides on altering the production of physiological (brain) concentrations (200 nM) of human Aβ1-42.
Aβ species were prepared and the assay run as described previously (i.e. Aβ1-42 at 200 nM and Copper and Dopamine concentrations remain unchanged). Peptide analogue MP2 (SEQ ID NO:2) was added to Aβ1-42+Cu solutions at ratios ranging from 0.005:1 to 10.0:1 (i.e. a ration of 0.005:1 would contain 1 nM of respective peptide). The peptide was dissolved in PBS pH7.5. The effect of MP2 on H2O2 production by human Aβ1-42 was determined in triplicate in three separate experiments (i.e. n=9) for doses ranging from 100 to 2000 nM (FIG. 1). These were compared against the level of H2O2 produced by human Aβ1-42 [test peptide analogue MP2+positive control peptide 15merTNP; three experiments done in triplicate, […]]. All data are presented as means±SEM.
For all assays run, the 15merTNP peptide (SEQ ID NO: 3), was included as a positive control for the assay and for comparing its activity with that of the modelled peptide analogue MP2. The effect of 15merTNP (200 nM) on H2O2 production by human Aβ1-42, was determined in triplicate in each of the 12 DCF assays (i.e. n=36) performed in this study.

A further data set deals with PS/APP transgenic mice. Put plainly: Efficacy study: i.c.v. infusion in PS/APP transgenic mice, Aβ and GFAP immunohistochemistry. The conditions noted are these: 6-month-old PS/APP mice, 28 days, vs Vehicle (PBS). It counts as in vivo. The text has this: Peptide analogue MP2 [Ac-Asn-Arg-Thr-Pro-Gln-Met-Leu-Lys-Arg-NH2 (SEQ ID NO:2)] was delivered directly into the brain by i.c.v administration. For i.c.v infusion into the cerebrospinal fluid, a cannula is inserted into the right lateral ventricle of the brain (antero-posterior: −0.3 mm; medium-line: −1 mm; dorso-ventral: −2.2 mm) of 3-month and 6-month old PS/APP transgenic mice using a Kopf (Tujunga, Calif.) stereotaxic instrument (Permanne et al., 2002 “Reduction of amyloid load and cerebral damage in a transgenic mouse model of Alzheimer's disease by treatment with a β-sheet breaker peptide” FASEB J.).
The coordinates are measured from the Bregma and the surface of the skull according to the brain atlas of Franklin and Paxinos (The Mouse Brain in Stereotaxic Coordinates (1997) Academic Press, San Diego). […]
For immunohistochemistry, tissue sections are cut and series of sections processed for peroxidase immunohistochemistry with antibodies specific for beta amyloid (1-42) and astrocytic activation (GFAP). […] Reactive astrocytes (forming a halo around Aβ deposits) were detected using antibody GFAP (1:500 dilution in DAKO antibody diluent; polyclonal, DAKO); Aβ detected using affinity purified WO2 antibody (1:10,000 dilution in Tris buffer (pH 7.6); raised against amino acid residues 5-8 of human Aβ, monoclonal). […]

In the next data set the test system is human Aβ42. Put plainly: MTS cell viability assay of MP2 analogues, cells treated with human Aβ42 (20 μM). The conditions noted are these: peptide 80-400 μM. It counts as cell-based. The procedure: FIG. 7 illustrates the effect of various peptide analogues of the peptide analogue of SEQ ID NO:2 on cell viability associated with human Aβ1-42. Cells were treated with human Aβ42 peptide (20 μM) in the absence or presence of increasing doses of MP2, MP4, MP5 or MP6 (n=6, for each peptide). Cell viability was assessed by the MTS assay.
Cells were treated with human Aβ42 peptide (20 μM) in the absence or presence of increasing doses of MP2, MP4, MP5 or MP6 (n=6, for each peptide). Cell viability was assessed by the MTS assay.
Background: Tetrazolium dyes change colour on reduction, which living cells bring about.

Here are results for one substance from patent US8492341B2, “Amyloid-β binding peptides” (Alzyme Pty Ltd., priority 2006, dated 2013).

Usually half-life stands for the time needed for the level to fall by half in the phase considered. The low end stands for rapid decline, the high end for slow decline.

Chain of human Aβ1-42 (P05067 672-713): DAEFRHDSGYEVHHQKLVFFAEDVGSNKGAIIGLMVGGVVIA

For “Ac-NRTPQMLKR-NH2 [MP2, Ac-Asn-Arg-Thr-Pro-Gln-Met-Leu-Lys-Arg-NH2]”, the “Stability in rat brain homogenate (in vitro half-life)” value in data set [1] (10% brain homogenate, 37° C., listed as Peptide analogue MP2) was >24 h. For the same substance, in data set [1] (10% rodent brain homogenate, 24 hour time period), the “stability relative to 15merTNP” value is “significantly more stable”. The half-life at 2.5 mmol per ml in data set [1] (rat, fresh 10% brain homogenate, 10% brain homogenate, 37° C.) was > 24 h. In addition, the “H2O2 levels produced by human Aβ1-42” value on human Aβ1-42 (100 and 200 nM peptide) is given as “significant reduction”; on human Aβ1-42 (peptide doses ≧1000 nM), “significantly increased”. Also, the “reduction in the estimated total number of Aβ immunoreactive deposits” value with PS/APP transgenic mice (60 nmoles daily i.c.v.) is 26.4%. Also, in the data set with PS/APP transgenic mice (60 nmoles/day i.c.v.), the “total number of GFAP immunoreactive halos” value is “reduction in the total number of GFAP immunoreactive halos, although significance was only reached in the middle and posterior cortical regions”. Also, the “cell viability following treatment with human Aβ42” value in the data set with human Aβ42 is reported as “significantly increased”.
